This passage reports IC50 results from patent US20220047569A1, “METHOD AND COMPOUND FOR USE, IN TREATING AND/OR PREVENTING NETOSIS” (Jubilant EpiPad LLC, priority 2020, published 2022).

The structures appear in SMILES notation. A value given as a limit tells only on which side of the number the result lay.

In this experiment the test system is Histone H3 Citrullination in Neutrophils. As to the kind of experiment: Citrullination ELISA (Citrullinated Histone H3) in calcium ionophore stimulated neutrophils. The format is cell-based. The following applies: Neutrophil; human neutrophils, 25 μM calcium ionophore, CitH3 ELISA. The method, then:
Neutrophils were isolated according to the EasySep Direct Human Neutrophil Isolation Kit. In short, 50 mL of blood sample was drawn in a vacutainer containing K2EDTA from a healthy donor. To the whole blood, the isolation cocktail of 50 μL/mL was added. Then, in the next step 50 μL/mL of RapidSpheres™ was added to the sample. The sample was mixed evenly with the pipette and incubated for 10 minutes at room temperature. After incubation, PBS containing 1 mM EDTA was added at the ratio of 1:1 to the blood. Then the sample tube was incubated for 10 minutes. The enriched cell suspension was transferred into a new tube and RapidSpheres™ were added at 50 μL/mL to this suspension, mixed and incubated for 10 minutes at room temperature. At this step, the enriched cell suspension was carefully collected as a clear fraction into a fresh tube. Then, previous tube was replaced with the fresh tube containing enriched cell suspension. After the final separation, the clear solution of enriched cell suspension was carefully transferred to fresh tube which was ready to use for the experiment. These cells were then subjected to wash twice with plain RPMI 1640 media without Fetal Bovine Serum (FBS) and centrifuged at 1500 rpm for 5 minutes at room temperature. Cell counts were performed on each sample by Invitrogen cell counter. After the cell count, cell density was adjusted according to the experiment and re-suspended in complete RPMI media containing RPMI1640, 2% BSA and 1 mM CaCl2.
Freshly isolated neutrophils from human donor were seeded at a density of 0.5×10^6 cells in 400 μL cell suspension/well in a 24-well plate and cells were pre-incubated with the compound for 30 minutes by adding 50 μL of the 10× concentration to achieve the final 1× concentration of compound (10 μM, 1 μM and 0.1 μM). 1% DMSO was added in control wells. Then, the cells were stimulated in the presence and absence of calcium ionophore by adding 50 μL/well to achieve the final concentration of 25 μM. Upon incubation for 30 minutes with calcium ionophore, S7 nuclease was added to the wells and incubated for 10 minutes to disrupt NET DNA. Following incubation, 10 μL of 1 mM EDTA was added to inactivate nuclease. Cells were scrapped gently and transferred to the tubes, followed by centrifugation at 1500 rpm for 5 minutes. After centrifugation, supernatant was discarded, and 200 μL of lysis buffer containing PBS and 1× Protease inhibitor was added to the tubes. The obtained lysis was then subjected to mechanical shearing using Geno grinder by spin the plate at 2500 rpm for 10 minutes, followed by collection of supernatant and stored at −20° C. or immediately used for ELISA.
ELISA was performed as per Citrullinated Histone H3 ELISA Kit. All the buffer components from the kit were dissolved according to the manufactures protocol. ELISA Buffer Concentrate (10×) (Item No. 400060) and Wash Buffer Concentrate (400×) (Item No. 400060) along with polysorbate 20 (2000×) (Item No. 400035) was diluted to 1× with milliQ water. The standard for use in the ELISA was prepared as follows: • Obtain eight clean test tubes and label them, #1 through #8. Aliquot 4.9 mL of ELISA Buffer into tube #1. • Aliquot 500 μL of ELISA Buffer into the tubes #2-8. […] This tube is considered as blank, the lowest point on the standard curve.
100 μL of standards or diluted sample was added to the appropriate wells on the 96-well plate. Plates were covered with 96-well cover sheet and incubated for two hours at room temperature on an orbital shaker. The samples and standard were removed from the wells and washed four times with Wash Buffer. After the last wash, Anti-Histone H3 HRP Conjugate (Item No. 501441) (10×) stock solution was diluted in 1×ELISA buffer and 100 μL of the HRP Conjugate working solution was added to each well of the plate and incubated for one hour at room temperature on an orbital shaker. […]
For `CCn1c(-c2nc3cc(C(=O)N4CCC[C@@H](N)C4)ccn3c2C)cc2cc(F)ccc21` [Compound 39, (R)-(3-aminopiperidin-1-yl)(2-(1-ethyl-5-fluoro-1H-indol-2-yl)-3-methylimidazo[1,2-a]pyridin-7-yl)methanone], the IC50 is < 100 nM.
Under `COc1cc2cc(-c3nc4cc(C(=O)N5CCC[C@@H](N)C5)cc5c4n3CCO5)n(CC3CC3)c2cc1OC` [Compound 103, (R)-(3-aminopiperidin-1-yl)(2-(1-(cyclopropylmethyl)-5,6-dimethoxy-1H-indol-2-yl)-3,4-dihydro-5-oxa-1,2a-diazaacenaphthylen-7-yl)methanone] stands < 100 nM.
Under `N[C@@H]1CCCN(C(=O)c2cc3c4c(c2)nc(-c2cc5cc(/C=C/c6ccccc6)ccc5n2CC2CC2)n4CCO3)C1` [Compound 144, (R,E)-(3-aminopiperidin-1-yl)(2-(1-(cyclopropylmethyl)-5-styryl-1H-indol-2-yl)-3,4-dihydro-5-oxa-1,2a-diazaacenaphthylen-7-yl)methanone] stands < 100 nM; under `Cc1c(-c2cc3ccccc3n2Cc2ccc(CO)cc2)nc2cc(C(=O)N3CCC[C@@H](N)C3)ccn12` [Compound 81, (R)-(3-aminopiperidin-1-yl)(2-(1-(4-(hydroxymethyl)benzyl)-1H-indol-2-yl)-3-methylimidazo[1,2-a]pyridin-7-yl)methanone], > 1000 nM; under `N[C@@H]1CCCN(C(=O)c2cc3c4c(c2)nc(-c2cc5ccccc5n2Cc2ccc(Cl)cc2)n4CCO3)C1` [Compound 99, (R)-(3-aminopiperidin-1-yl)(2-(1-(4-chlorobenzyl)-1H-indol-2-yl)-3,4-dihydro-5-oxa-1,2a-diazaacenaphthylen-7-yl)methanone], 100 to 1000 nM.
As to `COc1ccc2cc(-c3nc4cc(C(=O)N5CCC[C@@H](N)C5)cc5c4n3CCO5)n(CC3CC3)c2c1` [Compound 109, (R)-(3-aminopiperidin-1-yl)(2-(1-(cyclopropylmethyl)-6-methoxy-1H-indol-2-yl)-3,4-dihydro-5-oxa-1,2a-diazaacenaphthylen-7-yl)methanone], the half-maximal inhibitory concentration (IC50) was 100 to 1000 nM.
For `CCn1c(-c2nc3cc(C(=O)N4CCC[C@@H](N)C4)ccn3c2C)cc2ccccc21` [Compound 4, (R)-(3-aminopiperidin-1-yl)(2-(1-ethyl-1H-indol-2-yl)-3-methylimidazo[1,2-a]pyridin-7-yl)methanone], the concentration for half-maximal inhibition (IC50) is < 100 nM.
With `COCCn1c(-c2nc3cc(C(=O)N4CCC[C@@H](N)C4)cc4c3n2CCO4)cc2ccccc21` [Compound 106, (R)-(3-aminopiperidin-1-yl)(2-(1-(2-methoxyethyl)-1H-indol-2-yl)-3,4-dihydro-5-oxa-1,2a-diazaacenaphthylen-7-yl)methanone], the concentration for half-maximal inhibition (IC50) fell in the range of 100 to 1000 nM.
Regarding `N[C@@H]1CCCN(C(=S)c2cc3c4c(c2)nc(-c2cc5ccccc5n2CC2CC2)n4CCN3)C1` [Compound 172, (R)-(3-aminopiperidin-1-yl)(2-(1-(cyclopropylmethyl)-1H-indol-2-yl)-5,6-dihydro-4H-imidazo[1,5,4-de]quinoxalin-8-yl)methanethione], the IC50 is < 100 nM.
For `N[C@@H]1CCCN(C(=O)c2cc3c4c(c2)nc(-c2cc5cccc(Cl)c5n2Cc2ncccc2F)n4CCO3)C1` [Compound 120, (R)-(3-aminopiperidin-1-yl)(2-(7-chloro-1-((3-fluoropyridin-2-yl)methyl)-1H-indol-2-yl)-3,4-dihydro-5-oxa-1,2a-diazaacenaphthylen-7-yl)methanone] the value was 100 to 1000 nM; for `COc1ccc2cc(-c3nc4cc(C(=O)N5CCC[C@@H](N)C5)ccn4c3C)n(Cc3ccc(F)cc3)c2c1` [Compound 80, (R)-(3-aminopiperidin-1-yl)(2-(1-(4-fluorobenzyl)-6-methoxy-1H-indol-2-yl)-3-methylimidazo[1,2-a]pyridin-7-yl)methanone], > 1000 nM; for `Cc1c(-c2cc3ccccc3n2Cc2ccncc2)nc2cc(C(=O)N3CCC[C@@H](N)C3)ccn12` [Compound 10, (R)-(3-aminopiperidin-1-yl)(3-methyl-2-(1-(pyridin-4-ylmethyl)-1H-indol-2-yl)imidazo[1,2-a]pyridin-7-yl)methanone], < 100 nM.
Regarding `N[C@@H]1CCCN(C(=O)c2cc3c4c(c2)nc(-c2cc5ccc(CO)cc5n2CC2CC2)n4CCO3)C1` [Compound 147, (R)-(3-aminopiperidin-1-yl)(2-(1-(cyclopropylmethyl)-6-(hydroxymethyl)-1H-indol-2-yl)-3,4-dihydro-5-oxa-1,2a-diazaacenaphthylen-7-yl) methanone], the concentration for half-maximal inhibition (IC50) was 100 to 1000 nM.
For `Cc1cccc2cc(-c3nc4cc(C(=O)N5CCC[C@@H](N)C5)cc5c4n3CCN5)n(CC3CC3)c12` [Compound 170, (R)-(3-aminopiperidin-1-yl)(2-(1-(cyclopropylmethyl)-7-methyl-1H-indol-2-yl)-5,6-dihydro-4H-imidazo[1,5,4-de]quinoxalin-8-yl)methanone], the IC50 was in the range of 100 to 1000 nM.
Under `COc1cccc(Cn2c(-c3nc4cc(C(=O)N5CCC[C@@H](N)C5)ccn4c3C)cc3cc(F)ccc32)c1` [Compound 53, (R)-(3-aminopiperidin-1-yl)(2-(5-fluoro-1-(3-methoxybenzyl)-1H-indol-2-yl)-3-methylimidazo[1,2-a]pyridin-7-yl)methanone] stands 100 to 1000 nM.
Under `COc1ccc2cc(-c3nc4cc(C(=O)N5CCC[C@@H](N)C5)cc5c4n3CCN5C)n(CC3CC3)c2c1` [Compound 160, (R)-(3-aminopiperidin-1-yl)(2-(1-(cyclopropylmethyl)-6-methoxy-1H-indol-2-yl)-6-methyl-5,6-dihydro-4H-imidazo[1,5,4-de]quinoxalin-8-yl)methanone] stands < 100 nM; under `COc1ccc(Cn2c(-c3nc4cc(C(=O)N5CCC[C@@H](N)C5)cc5c4n3CCO5)cc3ccc(F)cc32)cc1` [Compound 136, (R)-(3-aminopiperidin-1-yl)(2-(6-fluoro-1-(4-methoxybenzyl)-1H-indol-2-yl)-3,4-dihydro-5-oxa-1,2a-diazaacenaphthylen-7-yl)methanone], > 1000 nM.
As to `N[C@@H]1CCCN(C(=O)c2cc3c4c(c2)nc(-c2cc5ccccc5n2CC(F)F)n4CCO3)C1` [Compound 133, (R)-(3-aminopiperidin-1-yl)(2-(1-(2,2-difluoroethyl)-1H-indol-2-yl)-3,4-dihydro-5-oxa-1,2a-diazaacenaphthylen-7-yl)methanone], the IC50 was > 1000 nM.
Under `N[C@@H]1CCCN(C(=O)c2cc3c4c(c2)nc(-c2cc5ccc(F)cc5n2Cc2ncccc2F)n4CCO3)C1` [Compound 121, (R)-(3-aminopiperidin-1-yl)(2-(6-fluoro-1-((3-fluoropyridin-2-yl)methyl)-1H-indol-2-yl)-3,4-dihydro-5-oxa-1,2a-diazaacenaphthylen-7-yl)methanone] stands > 1000 nM; under `COc1ccc2cc(-c3nc4cc(C(=O)N5CCC[C@@H](N)C5)cc5c4n3CCO5)n(Cc3ncccc3F)c2c1` [Compound 119, (R)-(3-aminopiperidin-1-yl)(2-(1-((3-fluoropyridin-2-yl)methyl)-6-methoxy-1H-indol-2-yl)-3,4-dihydro-5-oxa-1,2a-diazaacenaphthylen-7-yl)methanone], 100 to 1000 nM; under `CCn1c(-c2nc3cc(C(=O)N4CCC[C@@H](N)C4)ccn3c2C)cc2ccc(OC)cc21` [Compound 67, (R)-(3-aminopiperidin-1-yl)(2-(1-ethyl-6-methoxy-1H-indol-2-yl)-3-methylimidazo[1,2-a]pyridin-7-yl)methanone], > 1000 nM.
Under `Cc1c(-c2cc3cccc(Cl)c3n2CC2CC2)nc2cc(C(=O)N3CCC[C@@H](N)C3)ccn12` [Compound 44, (R)-(3-aminopiperidin-1-yl)(2-(7-chloro-1-(cyclopropylmethyl)-1H-indol-2-yl)-3-methylimidazo[1,2-a]pyridin-7-yl)methanone] stands < 100 nM.
